Assay results published in PubChem BioAssay AID2631 (Broad Institute, 2010).
Inconclusive results are not listed. Calls of active or inactive are those of the source.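 Rule for the calls: active = EC50 no more than tenfold above the top concentration tested; inconclusive = flat fit with effect between 30% and 70%, or unusable fit; inactive = EC50 beyond tenfold above the top dose.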

System: BJeLR fibroblast viability, alamar blue fluorescence, 48 h
Test: cytotoxicity toward Ras-transformed BJeLR fibroblasts, dose response, cell-based, alamar blue fluorescence, cherrypicked samples (AID 2631)

Compound	EC50
CCc1ccc(/C=C2/SC(=S)N(CCC(=O)NCCCN3CCOCC3)C2=O)cc1	> 6.67 µM (inactive)
CCc1ccc(/C=C2\SC(=S)N(CCC(=O)NCCCN3CCOCC3)C2=O)cc1	> 6.67 µM (inactive)
